Test results as given in ChEMBL document CHEMBL1135090, “Non-peptide alpha(v)beta(3) antagonists. Part 3: identification of potent RGD mimetics incorporating novel beta-amino acids as aspartic acid replacements” (Bioorg Med Chem Lett, 2002).

Columns and labels:
[1] = Partition coefficient (logP); format: physicochemical; details: octanol/water
Integrin alpha-V/beta-3 = Integrin alpha-V/beta-3 (Homo sapiens, UniProt P05106+P06756); experiment: Inhibition of high affinity radioligand binding to human alphaV-beta3 integrin; format: protein-complex assay
[2] = target: T1, Integrin alpha-IIb/beta-3 (Homo sapiens) (UniProt P05106+P08514); experiment: Inhibition of ADP-stimulated alphaIIb-beta3 integrin mediated human platelet aggregation at 10 uM
[3] = target: T1, Integrin alpha-IIb/beta-3 (Homo sapiens); experiment: Inhibition of ADP-stimulated alphaIIb-beta3 integrin mediated human platelet aggregation at 11 uM
[4] = Bioavailability (dose 1 mg/kg p.o. and 0.2 mg/kg i.v.); format: ADME, organism-based; details: eutheria, in vivo, po
[5] = target: T1, Integrin alpha-IIb/beta-3 (Homo sapiens); experiment: Inhibition of ADP-stimulated alphaIIb-beta3 integrin mediated human platelet aggregation at 5.7 uM
[6] = Compound was tested for plasma clearance on administered orally as aqueous solutions at 1 mpk and by iv at 0.2 mpk; format: ADME, organism-based; details: 0.2 mg/kg
[7] = target: T1, Integrin alpha-IIb/beta-3 (Homo sapiens); experiment: Inhibition of ADP-stimulated alphaIIb-beta3 integrin mediated human platelet aggregation at 776 uM

Integrin alpha-V/beta-3, sequence (P05106 27-788 limits assumed): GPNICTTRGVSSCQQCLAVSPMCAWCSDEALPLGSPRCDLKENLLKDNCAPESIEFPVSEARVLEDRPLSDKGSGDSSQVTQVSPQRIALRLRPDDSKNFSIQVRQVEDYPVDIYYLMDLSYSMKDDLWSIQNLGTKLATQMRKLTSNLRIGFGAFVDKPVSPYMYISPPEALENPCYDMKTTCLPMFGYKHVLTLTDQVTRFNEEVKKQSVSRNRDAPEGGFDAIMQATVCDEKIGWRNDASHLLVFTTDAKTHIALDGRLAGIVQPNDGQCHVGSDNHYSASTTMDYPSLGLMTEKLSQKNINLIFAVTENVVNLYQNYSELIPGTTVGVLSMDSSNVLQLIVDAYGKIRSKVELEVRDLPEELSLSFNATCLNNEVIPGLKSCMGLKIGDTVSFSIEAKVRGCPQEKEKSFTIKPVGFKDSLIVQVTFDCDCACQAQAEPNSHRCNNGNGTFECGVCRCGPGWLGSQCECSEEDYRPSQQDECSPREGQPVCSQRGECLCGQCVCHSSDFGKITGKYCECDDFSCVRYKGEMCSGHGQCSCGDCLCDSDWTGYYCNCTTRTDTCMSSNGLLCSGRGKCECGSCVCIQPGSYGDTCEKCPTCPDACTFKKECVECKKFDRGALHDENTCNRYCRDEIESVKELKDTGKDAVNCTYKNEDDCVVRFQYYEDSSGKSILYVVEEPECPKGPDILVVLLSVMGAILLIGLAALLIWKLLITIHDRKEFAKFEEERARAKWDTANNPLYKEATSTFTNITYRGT
Integrin alpha-V/beta-3, sequence (P06756 31-889 limits assumed): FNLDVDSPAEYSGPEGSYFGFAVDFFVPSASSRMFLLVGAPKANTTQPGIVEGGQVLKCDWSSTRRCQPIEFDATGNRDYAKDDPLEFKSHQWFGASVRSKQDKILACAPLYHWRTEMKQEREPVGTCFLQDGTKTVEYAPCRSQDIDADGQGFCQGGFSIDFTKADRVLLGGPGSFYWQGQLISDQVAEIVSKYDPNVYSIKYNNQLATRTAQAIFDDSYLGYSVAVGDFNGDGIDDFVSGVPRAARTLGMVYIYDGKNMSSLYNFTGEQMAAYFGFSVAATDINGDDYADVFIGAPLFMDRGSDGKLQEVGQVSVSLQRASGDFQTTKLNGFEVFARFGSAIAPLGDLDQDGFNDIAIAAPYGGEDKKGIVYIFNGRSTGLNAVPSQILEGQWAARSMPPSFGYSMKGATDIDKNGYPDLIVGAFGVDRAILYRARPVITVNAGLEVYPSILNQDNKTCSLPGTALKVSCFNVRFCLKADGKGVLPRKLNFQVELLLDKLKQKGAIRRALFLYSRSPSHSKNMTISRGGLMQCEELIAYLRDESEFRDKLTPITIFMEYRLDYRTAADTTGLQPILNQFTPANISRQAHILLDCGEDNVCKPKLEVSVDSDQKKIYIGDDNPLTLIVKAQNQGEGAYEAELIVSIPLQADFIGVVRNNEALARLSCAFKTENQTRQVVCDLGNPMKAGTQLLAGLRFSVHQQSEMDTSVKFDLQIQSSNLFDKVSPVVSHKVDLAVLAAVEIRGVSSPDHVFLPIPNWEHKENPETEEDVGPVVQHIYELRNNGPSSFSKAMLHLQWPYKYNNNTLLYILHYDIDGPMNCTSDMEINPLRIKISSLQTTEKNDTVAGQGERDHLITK
Integrin alpha-V/beta-3, sequence (P06756 891-1048 limits assumed): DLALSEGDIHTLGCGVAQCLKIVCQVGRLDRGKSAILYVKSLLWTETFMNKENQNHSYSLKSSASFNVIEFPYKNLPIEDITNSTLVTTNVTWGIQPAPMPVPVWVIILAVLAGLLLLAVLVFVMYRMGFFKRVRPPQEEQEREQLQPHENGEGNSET

| Compound | IC50 (Integrin alpha-V/beta-3) | inhibition [2] | further results |
| --- | --- | --- | --- |
| O=C(O)C[C@H](NC(=O)CN1CC[C@H](CCc2ccc3c(n2)NCCC3)C1=O)c1ccc2c(c1)OC(F)(F)O2 | 5.8 nM | 3% | logP [1]: 1.44 |
| O=C(O)C[C@H](NC(=O)CN1CC[C@H](CCc2ccc3c(n2)NCCC3)C1=O)c1ccc(-c2ccccc2)c(F)c1 | 0.57 nM | 3% | – |
| O=C(O)C[C@H](NC(=O)CN1CC[C@H](CCc2ccc3c(n2)NCCC3)C1=O)c1ccc2ccsc2c1 | 2.2 nM | 29% | – |
| O=C(O)C[C@H](NC(=O)CN1CC[C@H](CCc2ccc3c(n2)NCCC3)C1=O)c1ccc2nc(O)oc2c1 | – | 19% | – |
| O=C(O)C[C@H](NC(=O)CN1CC[C@H](CCc2ccc3c(n2)NCCC3)C1=O)c1ccc2c(c1)CCC2 | 29 nM | – | – |
| O=C(O)CCNC(=O)CN1CC[C@H](CCc2ccc3c(n2)NCCC3)C1=O | 230 nM | – | – |
| O=C(O)C[C@H](NC(=O)CN1CC[C@H](CCc2ccc3c(n2)NCCC3)C1=O)c1cccc(F)c1 | 1.8 nM | 6% | – |
| O=C(O)C[C@H](NC(=O)CN1CC[C@H](CCc2ccc3c(n2)NCCC3)C1=O)c1ccc2c(c1)CCO2 | 1.1 nM | 20% | – |
| O=C(O)C[C@H](NC(=O)CN1CC[C@H](CCc2ccc3c(n2)NCCC3)C1=O)c1ccccc1 | 4 nM | 8% | – |
| O=C(O)C[C@H](NC(=O)CN1CC[C@H](CCc2ccc3c(n2)NCCC3)C1=O)c1ccc2ncsc2c1 | 3.7 nM | 19% | – |

Continued, in another order:

| IC50 (Integrin alpha-V/beta-3) | inhibition [2] | Compound | further results |
| --- | --- | --- | --- |
| 0.31 nM | 28% | CCOc1ccc([C@H](CC(=O)O)NC(=O)CN2CC[C@H](CCc3ccc4c(n3)NCCC4)C2=O)cc1F | – |
| 0.35 nM | – | O=C(O)C[C@H](NC(=O)CN1CC[C@H](CCc2ccc3c(n2)NCCC3)C1=O)c1cccnc1 | inhibition [3]: 50% |
| 0.29 nM | – | O=C(O)C[C@H](NC(=O)CN1CC[C@H](CCc2ccc3c(n2)NCCC3)C1=O)c1ccc2[nH]c(=O)oc2c1 | – |
| 0.11 nM | 60% | O=C(O)C[C@H](NC(=O)CN1CC[C@H](CCc2ccc3c(n2)NCCC3)C1=O)c1ccc2c(c1)OCC2 | – |
| 0.32 nM | – | O=C(O)C[C@H](NC(=O)CN1CC[C@H](CCc2ccc3c(n2)NCCC3)C1=O)c1ccc2c(c1)OCO2 | logP [1]: 0.26; bioavailability [4]: 30%; inhibition [5]: 50%; clearance [6]: 25 mL/min/kg |
| 0.49 nM | 30% | COc1ccc([C@H](CC(=O)O)NC(=O)CN2CC[C@H](CCc3ccc4c(n3)NCCC4)C2=O)cc1F | – |
| 0.04 nM | – | O=C(O)C[C@H](NC(=O)CN1CC[C@H](CCc2ccc3c(n2)NCCC3)C1=O)c1cnc2ccccc2c1 | inhibition [7]: 50% |
